Source: US8987314B2, “Amide, urea or sulfone amide linked benzothiazole inhibitors of endothelial lipase” (Bristol-Myers Squibb Company, priority 2012, dated 2015)
pIC50: −log10 of the molar value.

Columns and labels:
[1] = biological target: hepatic lipase (HL) (Homo sapiens (Human), UniProt P11150); experiment: HL assay: hepatic lipase activity with fluorescent substrate A10070 in DMPG vesicles; type: biochemical
Summary of the method: (§1)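 Vesicles prepared: A10070 dried with DMPG, resuspended in HEPES pH 8.0/NaCl/EDTA, sonicated on ice. Enzyme incubated with compound 30 min at 37° C. Reaction started with 1:10 diluted vesicles. Fluorescence (490/530 nm) followed 60 min; slope from 300–900 secs gives rate.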

[2] = biological target: Endothelial lipase (EL) (Homo sapiens (Human), UniProt Q9Y5X9); experiment: EL assay: endothelial lipase activity with fluorescent substrate A10070 in DMPG vesicles; type: biochemical
Summary of the method: as §1

Chain of Endothelial lipase (EL) (Q9Y5X9 21-500): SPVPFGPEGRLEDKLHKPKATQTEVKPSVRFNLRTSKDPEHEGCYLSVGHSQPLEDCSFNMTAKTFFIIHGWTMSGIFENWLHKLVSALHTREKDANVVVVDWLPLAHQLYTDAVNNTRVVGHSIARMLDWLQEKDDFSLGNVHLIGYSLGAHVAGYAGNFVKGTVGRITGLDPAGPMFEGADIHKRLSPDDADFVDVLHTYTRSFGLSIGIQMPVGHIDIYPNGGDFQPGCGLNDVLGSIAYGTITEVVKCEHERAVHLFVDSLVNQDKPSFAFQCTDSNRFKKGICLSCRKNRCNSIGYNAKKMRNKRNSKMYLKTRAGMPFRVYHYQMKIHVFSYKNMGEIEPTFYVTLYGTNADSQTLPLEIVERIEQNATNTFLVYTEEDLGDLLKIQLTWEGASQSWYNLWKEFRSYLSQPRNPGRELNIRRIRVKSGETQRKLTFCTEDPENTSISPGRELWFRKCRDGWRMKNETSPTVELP
Chain of hepatic lipase (HL) (P11150 23-499, species assumed): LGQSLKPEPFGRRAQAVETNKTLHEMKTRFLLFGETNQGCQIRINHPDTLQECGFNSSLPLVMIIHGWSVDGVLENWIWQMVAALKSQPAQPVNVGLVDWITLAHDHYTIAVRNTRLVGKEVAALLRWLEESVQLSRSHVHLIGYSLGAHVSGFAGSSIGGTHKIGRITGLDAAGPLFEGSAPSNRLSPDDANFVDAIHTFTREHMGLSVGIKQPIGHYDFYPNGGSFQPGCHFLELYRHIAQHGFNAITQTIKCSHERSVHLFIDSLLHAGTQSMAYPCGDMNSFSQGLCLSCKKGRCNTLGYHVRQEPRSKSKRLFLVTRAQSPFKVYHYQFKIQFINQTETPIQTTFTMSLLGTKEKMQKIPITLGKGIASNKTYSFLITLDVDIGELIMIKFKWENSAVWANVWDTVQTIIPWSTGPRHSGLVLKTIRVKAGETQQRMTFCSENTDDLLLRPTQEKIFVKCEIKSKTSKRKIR

Compound | pIC50 [1] | pIC50 [2]
CC(C)S(=O)(=O)C(C(=O)NCCS(N)(=O)=O)c1nc2cc(-c3ccc(F)nc3)ccc2s1 (stereo not shown) [Example B312, 2-[5-(6-fluoropyridin-3-yl)-1,3-benzothiazol-2-yl]-2-(propane-2-sulfonyl)-N-(2-sulfamoylethyl)a-cetamide] | 6.82 | 8.21
NS(=O)(=O)CCNC(=O)C(c1nc2ccc(-c3ccc(F)nc3)cc2s1)S(=O)(=O)CCN1CCOCC1 (stereo not shown) [Example B313, 2-[6-(6-fluoropyridin-3-yl)-1,3-benzothiazol-2-yl]-2-[2-(morpholin-4-yl)ethanesulfonyl]-N-(2-sulfamoylethyl)acetamide] | 6.97 | 7.97
NS(=O)(=O)CCNC(=O)C(c1nc2ccc(-c3ccc(CO)cc3)cc2s1)S(=O)(=O)CCN1CCOCC1 (stereo not shown) [Example B314, 2-{6-[4-(hydroxymeth-yl)phenyl]-1,3-benzothiazol-2-yl}-2-[2-(morpholin-4-yl)ethanesulfonyl]-N-(2-sulfamoylethyl)acetamide] | 7.45 | 7.79
NS(=O)(=O)CCNC(=O)C(c1nc2ccc(-c3cncnc3)cc2s1)S(=O)(=O)CCN1CCOCC1 (stereo not shown) [Example B315, 2-[2-(morpholin-4-yl)ethanesulfonyl]-2-[6-(pyrimidin-5-yl)-1,3-benzothiazol-2-yl]-N-(2-sulfamoylethyl)acetamide] | 5.00 | 7.25
NS(=O)(=O)CCNC(=O)C(c1nc2ccc(-c3ccc(C(F)(F)F)nc3)cc2s1)S(=O)(=O)CCN1CCOCC1 (stereo not shown) [Example B316, 2-[2-(morpholin-4-yl)ethanesulfonyl]-N-(2-sulfamoylethyl)-2-{6-[6-(trifluoromethyl)pyridin-3-yl]-1,3-benzothiazol-2-yl}acetamide] | 6.40 | 6.84
CS(=O)(=O)C(C(=O)NCCS(N)(=O)=O)c1nc2ccc(-c3cnn(CCC4CCOCC4)c3)cc2s1 (stereo not shown) [Example B317, 2-methanesulfonyl-2-(6-{1-[2-(oxan-4-yl)ethyl]-1H-pyrazol-4-yl}-1,3-benzothiazol-2-yl)-N-(2-sulfamoylethyl)acetamide] | 6.41 | 7.89
CC1(O)CN(C(=O)c2ccc(-c3ccc4nc(C(C(=O)NCCS(N)(=O)=O)S(C)(=O)=O)sc4c3)cc2)C1 (stereo not shown) [Example B318, 2-{6-[4-(3-hydroxy-3-methylazetidine-1-carbonyl)phenyl]-1,3-benzothiazol-2-yl}-2-methanesulfonyl-N-(2-sulfamoylethyl)acetamide] | 6.04 | 8.74
CC1(O)CN(C(=O)c2ccc(-c3ccc4sc(C(C(=O)NCCS(N)(=O)=O)S(C)(=O)=O)nc4c3)cc2)C1 (stereo not shown) [Example B319, 2-{5-[4-(3-hydroxy-3-methylazetidine-1-carbonyl)phenyl]-1,3-benzothiazol-2-yl}-2-methanesulfonyl-N-(2-sulfamoylethyl)acetamide] | 6.00 | 8.32
CC1(O)CN(C(=O)c2ccc(-c3ccc4nc(C(C(=O)NCCS(N)(=O)=O)S(=O)(=O)CCC(F)(F)F)sc4c3)cc2)C1 (stereo not shown) [Example B320, 2-{6-[4-(3-hydroxy-3-methylazetidine-1-carbonyl)phenyl]-1,3-benzothiazol-2-yl}-N-(2-sulfamoylethyl)-2-(3,3,3-trifluoropropanesulfonyl)a-cetamide] | 5.90 | 8.72
CS(=O)(=O)C(C(=O)NCCS(N)(=O)=O)c1nc2cc(-c3ccc(C(=O)N4CC(F)(F)C4)cc3)ccc2s1 (stereo not shown) [Example B321, 2-{5-[4-(3,3-difluoroazetidine-1-carbonyl)phenyl]-1,3-benzothiazol-2-yl}-2-methanesulfonyl-N-(2-sulfamoylethyl)acetamide] | 6.76 | 9.22
CC1(O)CN(C(=O)c2ccc(-c3ccc4nc(C(C(=O)NCCS(N)(=O)=O)S(=O)(=O)Cc5ccc(C(F)(F)F)cc5)sc4c3)cc2)C1 (stereo not shown) [Example B322, 2-{6-[4-(3-hydroxy-3-methylazetidine-1-carbonyl)phenyl]-1,3-benzothiazol-2-yl}-N-(2-sulfamoylethyl)-2-{[4-(trifluoromethyl)phen-yl]methanesulfonyl}a-cetamide] | 7.43 | 8.62

The next lines start with the values.

pIC50 [1] | pIC50 [2] | Compound
7.09 | 8.59 | CC1(O)CN(C(=O)c2ccc(-c3ccc4nc(C(C(=O)NCCS(N)(=O)=O)S(=O)(=O)Cc5ccc(OC(F)(F)F)cc5)sc4c3)cc2)C1 (stereo not shown) [Example B323, 2-{6-[4-(3-hydroxy-3-methylazetidine-1-carbonyl)phenyl]-1,3-benzothiazol-2-yl}-N-{2-sulfamoylethyl)-2-{[4-(trifluoromethoxy)phen-yl]methanesulfonyl}a-cetamide]
7.24 | 8.04 | NS(=O)(=O)CCNC(=O)C(c1nc2ccc(-c3ccc(C(=O)N4CCC(F)(F)C4)cc3)cc2s1)S(=O)(=O)Cc1ccc(OC(F)(F)F)cc1 (stereo not shown) [Example B324, 2-{6-[4-(3,3-difluoropyrrolidine-1-carbonyl)phen-yl]-1,3-benzothiazol-2-yl}-N-(2-sulfamoyl-ethyl)-2-{[4-(trifluoro-methoxy)phen-yl]methanesulfonyl}a-cetamide]
6.98 | 8.92 | Cc1cc2nc(C(C(=O)NCCS(N)(=O)=O)S(=O)(=O)Cc3ccccc3)sc2cc1-c1ccc(C(=O)O)cc1 (stereo not shown) [Example B325, 4-(5-methyl-2-{phen-ylmethanesulfonyl[(2-sulfa-moylethyl)carbamoyl]meth-yl}-1,3-benzothiazol-6-yl)benzoic acid]
6.70 | 8.80 | Cc1cc2nc(C(C(=O)NCCS(N)(=O)=O)S(C)(=O)=O)sc2cc1-c1ccc(C(=O)O)cc1 (stereo not shown) [Example B326, 4-(2-{methanesulfonyl[(2-sulfamoylethyl)carba-moyl]methyl}-5-methyl-1,3-benzothiazol-6-yl)benzoic acid]
5.58 | 8.40 | CS(=O)(=O)C(C(=O)NCCS(N)(=O)=O)c1nc2ccc(-c3ccc(C(=O)N4CC[C@H](O)C4)cc3)cc2s1 (stereo partly drawn) [Example B328, 2-(6-{4-[(3S)-3-hydroxypyrrolidine-1-carbonyl]phen-yl}-1,3-benzothiazol-2-yl)-2-methanesulfonyl-N-(2-sulfamoylethyl)a-cetamide]
6.58 | 8.74 | CS(=O)(=O)C(C(=O)NCCS(N)(=O)=O)c1nc2ccc(-c3ccc(C(=O)N4CC[C@@H](O)C4)cc3)cc2s1 (stereo partly drawn) [Example B329, 2-(6-{4-[(3R)-3-hydroxy-pyrrolidine-1-carbonyl]phen-yl}-1,3-benzothiazol-2-yl)-2-methanesulfonyl-N-(2-sulfamoylethyl)a-cetamide]
7.33 | 9.15 | CS(=O)(=O)C(C(=O)NCCS(N)(=O)=O)c1nc2ccc(-c3ccc(C(=O)N4CC(F)C4)cc3)cc2s1 (stereo not shown) [Example B330, 2-{6-[4-(3-fluoroazetidine-1-carbonyl)phenyl]-1,3-benzothiazol-2-yl}-2-methanesulfonyl-N-(2-sulfamoylethyl)acetamide]
6.67 | 7.14 | NC(=O)c1cccc(-c2ccc3nc(C(C(=O)NCCS(N)(=O)=O)S(=O)(=O)CCC(F)(F)F)sc3c2)c1 (stereo not shown) [Example B331, 3-(2-{[(2-sulfamoylethyl)car-bamoyl](3,3,3-trifluoro-propanesulfonyl)methyl}-1,3-benzothiazol-6-yl)benzamide]
6.86 | 8.82 | NS(=O)(=O)CCNC(=O)C(c1nc2ccc(-c3cccc(C(=O)N4CCC(O)CC4)c3)cc2s1)S(=O)(=O)CCC(F)(F)F (stereo not shown) [Example B332, 2-{6-[3-(4-hydroxy-piperidine-1-carbonyl)phen-yl]-1,3-benzothiazol-2-yl}-N-(2-sulfamoyl-ethyl)-2-(3,3,3-trifluoro-propanesulfonyl)acetamide]
6.92 | 8.01 | NS(=O)(=O)CCNC(=O)C(c1nc2ccc(-c3cccc(C(=O)N4CCOCC4)c3)cc2s1)S(=O)(=O)CCC(F)(F)F (stereo not shown) [Example B333, 2-{6-[3-(morpholine-4-carbonyl)phenyl]-1,3-benzothiazol-2-yl}-N-(2-sulfamoylethyl)-2-(3,3,3-trifluoropropanesulfon-yl)acetamide]
7.22 | 7.85 | NS(=O)(=O)CCNC(=O)C(c1nc2ccc(-c3cccc(C(=O)N4CC(F)(F)C4)c3)cc2s1)S(=O)(=O)CCC(F)(F)F (stereo not shown) [Example B334, 2-{6-[3-(3,3-difluoro-azetidine-1-carbonyl)phen-yl]-1,3-benzothiazol-2-yl}-N-(2-sulfamoyl-ethyl)-2-(3,3,3-trifluoro-propanesulfonyl)acetamide]
7.83 | 8.26 | NS(=O)(=O)CCNC(=O)C(c1nc2ccc(-c3cccc(C(=O)N4CCCC(F)(F)C4)c3)cc2s1)S(=O)(=O)CCC(F)(F)F (stereo not shown) [Example B335, 2-{6-[3-(3,3-difluoro-piperidine-1-carbonyl)phen-yl]-1,3-benzothiazol-2-yl}-N-(2-sulfamoyl-ethyl)-2-(3,3,3-trifluoro-propanesulfonyl)acetamide]
7.65 | 8.09 | NS(=O)(=O)CCNC(=O)C(c1nc2ccc(-c3cccc(C(=O)N4CC(F)C4)c3)cc2s1)S(=O)(=O)CCC(F)(F)F (stereo not shown) [Example B336, 2-{6-[3-(3-fluoroazetidine-1-carbonyl)phenyl]-1,3-benzothiazol-2-yl}-N-(2-sulfamoylethyl)-2-(3,3,3-trifluoropropanesulfonyl)a-cetamide]
7.55 | 8.17 | NS(=O)(=O)CCNC(=O)C(c1nc2ccc(-c3cccc(C(=O)NC4CCC4)c3)cc2s1)S(=O)(=O)CCC(F)(F)F (stereo not shown) [Example B337, N-cyclobutyl-3-(2-{[(2-sulfamoylethyl)carba-moyl](3,3,3-trifluoropropane-sulfonyl)methyl}-1,3-benzothiazol-6-yl)benzamide]
7.00 | 7.57 | CN(CC(F)F)C(=O)c1cccc(-c2ccc3nc(C(C(=O)NCCS(N)(=O)=O)S(=O)(=O)CCC(F)(F)F)sc3c2)c1 (stereo not shown) [Example B338, N-(2,2-difluoroethyl)-N-methyl-3-(2-{[(2-sulfamoylethyl)carba-moyl](3,3,3-trifluoropro-panesulfonyl)methyl}-1,3-benzothiazol-6-yl)benzamide]
